This is an account of results in ChEMBL document CHEMBL1130916, “Design and synthesis of conformationally-constrained MMP inhibitors” (Bioorg Med Chem Lett, 1998).

One experiment has as its target Stromelysin-1 (Homo sapiens, UniProt P08254). The experiment is described as follows: Inhibition of matrix metalloprotease-3 (MMP-3).
For the next experiment, the target named is T1, Interstitial collagenase (Homo sapiens, UniProt P03956).
T1 sequence (P03956 whole entry): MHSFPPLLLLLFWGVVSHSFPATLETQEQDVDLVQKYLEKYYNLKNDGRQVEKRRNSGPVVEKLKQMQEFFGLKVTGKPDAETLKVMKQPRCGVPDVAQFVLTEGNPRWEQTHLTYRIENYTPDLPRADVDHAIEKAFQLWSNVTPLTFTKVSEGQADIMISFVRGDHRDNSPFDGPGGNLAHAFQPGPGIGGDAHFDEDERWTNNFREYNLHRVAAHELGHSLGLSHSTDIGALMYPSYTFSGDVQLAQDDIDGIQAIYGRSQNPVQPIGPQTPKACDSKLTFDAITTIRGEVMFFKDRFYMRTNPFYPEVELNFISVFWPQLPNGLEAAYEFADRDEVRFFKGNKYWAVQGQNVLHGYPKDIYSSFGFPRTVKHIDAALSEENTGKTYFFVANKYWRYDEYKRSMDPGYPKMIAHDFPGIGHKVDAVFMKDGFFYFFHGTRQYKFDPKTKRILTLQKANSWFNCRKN
The experiment in a line: Inhibition of matrix metalloprotease-1 (MMP-1).

A word on the IC50: it is the concentration needed to halve the response being measured.

Stromelysin-1, sequence (P08254 whole entry): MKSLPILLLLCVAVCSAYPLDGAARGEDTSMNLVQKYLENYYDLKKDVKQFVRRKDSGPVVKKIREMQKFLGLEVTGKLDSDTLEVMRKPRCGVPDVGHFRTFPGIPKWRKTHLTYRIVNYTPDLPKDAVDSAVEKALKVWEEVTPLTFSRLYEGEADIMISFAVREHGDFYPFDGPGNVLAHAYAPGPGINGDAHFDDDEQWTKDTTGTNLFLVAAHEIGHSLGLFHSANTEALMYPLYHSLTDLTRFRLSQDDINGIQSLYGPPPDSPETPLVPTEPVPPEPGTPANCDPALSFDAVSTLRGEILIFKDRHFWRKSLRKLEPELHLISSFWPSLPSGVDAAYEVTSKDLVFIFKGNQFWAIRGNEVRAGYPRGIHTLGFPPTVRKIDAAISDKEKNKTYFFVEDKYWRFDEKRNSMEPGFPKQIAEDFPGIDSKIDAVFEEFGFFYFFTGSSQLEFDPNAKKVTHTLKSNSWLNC

Consider `CCCCCCCC[C@H](CC(=O)NO)C(=O)N[C@H]1CCCCN(CC(=O)OC)C1=O`, for which the concentration for half-maximal inhibition (IC50) at Stromelysin-1 amounted to 1040 nM; at Interstitial collagenase it was 11 nM.
On the same counts, the results for `CCC[C@@H](C(=O)NO)[C@@H](CC(C)C)C(=O)N[C@H]1CCCCN(CCOC)C1=O` are 94 nM and 83 nM.
In the same order, the values of `CCCCCCCC[C@@H](C(=O)N[C@H]1CCCCN(CC(=O)OC)C1=O)[C@@H](C)C(=O)NO` are 21 nM and 57 nM.
On the same counts, the results for `COC(=O)CN1CCCC[C@H](NC(=O)[C@H](CC(C)C)[C@@H](C)C(=O)NO)C1=O` are 215 nM and 49 nM.
Regarding `CCCCC[C@H](CC(=O)NO)C(=O)N[C@H]1CCCCN(CC(=O)OC)C1=O`, the half-inhibitory concentration (IC50) came out at 824 nM against Stromelysin-1 and 129 nM on Interstitial collagenase.
With `CCC[C@@H](C(=O)NO)[C@@H](CC(C)C)C(=O)N[C@H]1CCCCN(CC(=O)OC)C1=O`, the results for the IC50 on Stromelysin-1 and against Interstitial collagenase were 58 nM and 96 nM, respectively.
On to `COC(=O)CN1CCCC[C@H](NC(=O)[C@@H](CC(=O)NO)CC(C)C)C1=O`, for which the half-inhibitory concentration (IC50) at Stromelysin-1 was 2900 nM; on Interstitial collagenase it was 225 nM.
In the same order, the values of `CC(C)C[C@H](CC(=O)NO)C(=O)N[C@H]1CCCCN(CCOc2ccccc2)C1=O` are 518 nM and 117 nM.
On the same counts, the results for `CC(C)C[C@H](CC(=O)NO)C(=O)N[C@H]1CCCCNC1=O` are 11700 nM and 3900 nM.
In the same order, the values of `CCCCCCCC[C@H](CC(=O)NO)C(=O)N[C@H]1CCCCN(CCOC)C1=O` are 250 nM and 1890 nM.
For the compound `CC(C)C[C@H](CC(=O)NO)C(=O)N[C@H]1CCCCN(CCCOc2ccccc2)C1=O`, the 50% inhibitory concentration (IC50) against Stromelysin-1 turned out to be 1420 nM; on Interstitial collagenase it was 140 nM.
In the same order, the values of `CCCCCCCC[C@@H](C(=O)N[C@H]1CCCCN(CCOC)C1=O)[C@@H](C)C(=O)NO` are 30 nM and 112 nM.
Turning to `COCCN1CCCC[C@H](NC(=O)[C@H](CC(C)C)[C@@H](CCCO)C(=O)NO)C1=O`, the IC50 on Interstitial collagenase was found to be 51 nM.
For `CCCCCCCCC(C(=O)N[C@H]1CCCCN(CCOC)C1=O)C(C)C(=O)NO` (single isomer, unassigned), the results for the IC50 on Stromelysin-1 and at Interstitial collagenase were 108 nM and 4360 nM, respectively.
